pKd, pKi: −log10 of the molar value.
Assays:
Lactococcus lactis = assay: Inhibitory activity against family of dihydroorotate dehydrogenase 1A (1A DHOD) from Lactococcus lactis at 1 uMolar concentration; set-up: scale not given: the % may be the effect or the level left; conditions: 1 uM
[1] = Inhibition constant against 1A […] dehydrogenase (1A DHOD) from Lactococcus lactis
[2] = Dissociation constant against 1A […] dehydrogenase (1A DHOD) from Lactococcus lactis at 25 degrees C pH 8.0
[3] = Inhibition constant against dihydroorotate dehydrogenase 1A (1A DHOD) from Lactococcus lactis
[4] = Dissociation constant against dihydroorotate dehydrogenase 1A (1A DHOD) from Lactococcus lactis at 25 degrees C pH 8.0

Row | Structure (SMILES) | Activity (Lactococcus lactis) | also measured
1 | O=C(O)c1ccc(O)cc1O | 91% | –
2 | O=C(O)c1ccc(O)nc1 | 94% | –
3 | O=C(O)c1ccc(O)c(O)c1 [PROTOCATECHUIC ACID] | 7% | pKi [1]: 4.92; pKd [2]: 4.72
4 | O=C(O)c1cc(O)cc(O)c1 [3,5-DIHYDROXYBENZOIC ACID] | 6% | pKi [3]: 4.68; pKd [4]: 4.74
5 | O=C(O)c1ccc(O)cc1 | 92% | –
6 | O=C(O)c1ccccc1O | 81% | –

From ChEMBL document CHEMBL1134572, “Specific inhibition of a family 1A dihydroorotate dehydrogenase by benzoate pyrimidine analogues” (J Med Chem, 2001)
